Data reported in patent US20140378541A1, “Synthetic Epigallocatechin Gallate (EGCG) Analogs” (WAYNE STATE UNIVERSITY, priority 2011, published 2014).
Positions count from the first letter of the chain named. Like-named read-outs stand apart in the source and are kept apart here.

Experiments:
[1] = system: human multiple myeloma ARP cells; assay: MTT assay in multiple myeloma ARP cells, alone or with Velcade; type: cell-based; conditions: 48 h; for effect on cell proliferation when combined with Velcade: 20 μM plus varying doses of Velcade
Protocol: The cells were treated with Velcade™ alone or with 20 μM of compounds 5, 7 and 23 or in combination with varying doses of Velcade™ for 48 hrs, followed by a MTT assay.
Human multiple myeloma cells (Arp and Opm1) cells, kindly provided by Dr. Ramesh Batchu (Wayne State University), were grown in RPMI-1640 medium supplemented with 10% FBS, 100 units/ml of penicillin, and 100 μg/ml of streptomycin. Cells were maintained at 37° C. in 5% CO2 (Mujtaba T, et al., Int J Mol Med. (2012) 29(1):102-6).
(§1) Cells were grown in a 96-well plate. Triplicate wells of cells were treated with indicated concentrations of EGCG or EGCG analogs for 24 h. After aspiration of medium, MTT (1 mg/ml) was then added to the cell cultures, followed by incubation for 3 h at 37° C. After cells were crystallized, MTT was removed and DMSO was added to dissolve the metabolized MTT product. The absorbance was then measured on a Wallac Victor3 1420 Multi-label counter at 540 nm.

[2] = target: T1, proteasomal chymotrypsin-like activity of MDA-MB-231 cell extracts (Homo sapiens, UniProt P28074); assay: Proteasomal chymotrypsin-like activity in MDA-MB-231 cell lysate with high COMT activity; type: biochemical; conditions: concentrations ranging between 1-10 μM, 2 h
T1 construct: endogenous in cells; host or cells: MDA-MB-231 human breast cancer cells (ATCC), cell extract
T1 sequence (P28074 60-263): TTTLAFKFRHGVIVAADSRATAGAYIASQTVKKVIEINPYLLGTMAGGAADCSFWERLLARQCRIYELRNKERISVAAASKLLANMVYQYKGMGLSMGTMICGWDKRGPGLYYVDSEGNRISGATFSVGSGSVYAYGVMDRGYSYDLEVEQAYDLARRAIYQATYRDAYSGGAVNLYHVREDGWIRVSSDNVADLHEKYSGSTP
Protocol: (A) MDA-MB-231 cell extracts (5.7 μg) were incubated with different concentrations of compound 5 or 7 or EGCG for 2 hours, followed by performance of proteasomal chymotrypsin-like activity assay. EGCG was used as a control. (B) MDA-MB-231 cell extracts (5.7 μg) were pre-treated with 10 μM DNC for 20 minutes, followed by co-incubation with compound 5, or 7 or EGCG for 2 h. The proteasomal chymotrypsin-like activity was measured.
Human breast cancer MDA-MB-231 cell lysate that contains high COMT activity were treated with varying concentrations of compound 5 or 7. […] Thus, consistent with previous reports EGCG is also susceptible to methylation by COMT (H., Lu, X. Meng, C. S. Yang, Drug Metabolism and Disposition; 31; 572, 2003).

[3] = target: T2, purified rabbit 20S proteasome (Oryctolagus cuniculus, UniProt G1T4Q9); assay: Inhibition of chymotrypsin-like activity of purified 20S proteasome; type: biochemical; conditions: for proteasomal inhibition (in words): purified 20S proteasome, concentration not stated; for inhibition of proteasomal chymotryptic activity (in words): even at a concentration of 50 μM
T2 sequence (G1T4Q9 60-263): T1 sequence (P28074 60-263) with E197D
Protocol: Purified 20S proteasome was incubated with compound 5, 7, 16, or 21 (A) or MDA-MB-231 cell extract (5.7 μg) was incubated with compound 6, 8, 17, or 22 (B) at indicated concentrations for 2 hours, followed by measuring the proteasomal chymotrypsin-like activity. EGCG was used as a comparative standard.
Purified rabbit 20S proteasome and fluorogenic substrate Suc-LLVY-AMC for the proteasomal chymotrypsin like (CT-like) activity were obtained from Calbiochem Inc. (San Diego, Calif.). Fetal bovine serum (FBS) was from Tissue Culture Biologicals (Tulare, Calif.). Penicillin and streptomycin were purchased from Invitrogen Co. (Carlsbad, Calif.). RPMI 1640 medium was purchased from Invitrogen Co. (Carlsbad, Calif.). MTT (3-4,5-dimethylthiazol-2-yl-2.5-diphenyl-tetrazolium bromide) was purchased from Sigma-Aldrich.
A purified rabbit 20S proteasome (35 ng) was incubated with 20 μM of substrate Suc-LLVY-AMC in 100 μl assay buffer (20 mM Tris-HCl, pH 7.5), in the presence of EGCG or EGCG analogs at different concentrations or the solvent for 2 h at 37° C., followed by measurement of hydrolysis of the fluorogenic substrates using a Wallac Victor3™ multi-label counter with 355-nm excitation and 460-nm emission wavelengths.

MDA-MB-231 cells = assay: Mammosphere formation assay; type: cell-based; conditions: Homo sapiens, MDA-MB-231, 168 h, 7 days
Protocol: MDA-MB-231 cells were seeded in low attached 6-well plates (1000 cells/well) and treated with indicated concentrations of 23 and 30 for 7 days, followed by calculating numbers of mammosphere (A) and taking photos of mammosphere morphology (B). Metformin and EGCG were served as control. *, P<0.1; **, P<0.01. Columns, mean of three experiments; bars, SD.
Mammosphere formation assay was performed to assess the capacity of cancer stem cell self-renewal. Single cell suspensions of MDA-MB-231 cells were thoroughly suspended and plated on ultra low adherent wells of 6-well plates (Corning, Lowell, Mass.) at 1000 cells/well in 1.5 ml of sphere formation medium (1:1 DMEM/F12 medium supplemented with 50 units/ml penicillin, […] streptomycin, B-27 and N-2). One milliliter of sphere formation medium was added every 3-4 days. After 7 days of incubation with different concentrations of EGCG analogs 23, 30 or metformin, the formed spheres were collected by centrifugation at 300 g for 5 min and counted with an inverted phase-contrast Zeiss Axiovert 25 microscope.

[4] = system: Human breast cancer MDA-MB-231 cells; assay: MTT cell proliferation assay in MDA-MB-231 cells; type: cell-based; conditions: 24 h; for inhibition at 50 µM: Homo sapiens, MDA-MB-231
Protocol: Human breast cancer MDA-MB-231 cells were treated with 25 or 50 μM EGCG analogs for 24 hours, followed by MTT assay. Pro-EGCG was used as a comparison.
Human breast cancer MDA-MB-231 cells with high COMT activity were treated with 50 μM EGCG analogs for 24 hours in the absence or presence of 10 μM DNC, followed by MTT assay. Pro-EGCG was used as a comparison.
(§2) (A) EGCG analogs 23 and 30 inhibited breast cancer cell proliferation. MDA-MB-231 cells were treated with indicated concentrations of 23, 30 or metformin for 24 h, followed by a MTT assay. *, P<0.1; **, P<0.01. Columns, mean of three experiments; bars, SD. (B) EGCG analogs 23 and 30 activated AMPK at a dose-dependent manner, measured by elevated level of phosphor-AMPKα and its downstream proteins of phosphor-Raptor. […] MDA-MB-231 cells were treated with indicated concentrations of 23 or 30 for 3 h, followed by Western blot analysis with the indicated antibodies. The numbers underneath the Western results of p-AMPKα indicated normalized phosphor-AMPKα/β-actin ratios. […]
as §1

AMPK signaling = assay: AMPK activation, Western blot, MDA-MB-231 cells; type: cell-based, human; conditions: 20 μM, 3 h; metformin 10 mM as comparison
Protocol: In FIG. 9A, human breast cancer MDA-MB-231 cells were treated with 20 μM of EGCG, Pro-EGCG and EGCG analogs (compounds 5, 7, 23, 30 and 31), or 10 mM of metformin for 3 hrs. Cell lysates were analyzed by Western blot using antibodies of anti-AMPK, p-AMPK, PARP, p-EGFR, EGFR or β-actin. In FIG. 9B, human breast cancer MDA-MB-231 cells were treated with 20 μM of EGCG analogs 23 and 30, 10 nM of docetaxel alone, or combined treatment with compounds 23 and 30 plus docetaxel for 24 hrs. Cell lysates were analyzed by Western blot using antibodies of anti-AMPK, p-AMPK, PARP, p-EGFR, EGFR or β-actin. In FIG. 9C, cells were incubated in medium (0.1% BSA without FBS) containing 20 μM of 23, 30, 2.5 μM of Erlotinib (Eb) alone or the combinations as indicated for 24 hrs. Cell lyses were analyzed by Western blot using antibodies of anti-AMPK, p-AMPK, PARP, p-EGFR, EGFR or β-actin.
as §2
A whole cell extract was prepared from the treated cells as described by Landis-Piwowar et al. Cancer Res. (2007) 67, 4303, Chen et al. Cancer Res. (2007) 67, 1636, and Chen et al. Biochem. Pharm. (2005) 69, 1421. Cell extracts (30 μg) were separated by an SDS-PAGE gel and transferred to nitrocellulose membranes. The membrances were blotted by specific antibodies including anti-AMPK, p-AMPK, EGFR, p-EGFR (Cell Signaling Tech., Danvers, Mass.), PARP (Enzo Life Sciences, Plymouth Meeting, Pa.), actin (Santa Cruz Biotechnology, Santa Cruz, Calif.). The membranes were visualized by enhanced chemiluminescence, as described previously by Landis-Piwowar et al. Cancer Res. (2007) 67, 4303, Chen et al. Cancer Res. (2007) 67, 1636, and Chen et al. Biochem. Pharm. (2005) 69, 1421.
The Western blot analysis was performed as follows: A whole cell extract was prepared from the treated cells as described previously (Landis-Piwowar et al., Cancer research, 2007, 67: 4303-4310; Chen et al., Cancer research, 2007, 67: 1636-1644; Chen et al., Biochemical pharmacology, 2005, 69: 1421-1432). The cell extracts (30 μg) were then separated by an SDS-PAGE gel and transferred to nitrocellulose membranes. The membrances were blotted by specific antibodies including anti-AMPK, p-AMPK, EGFR, p-EGFR (Cell Signaling Tech. Danvers, Mass.), PARP (Enzo Life Sciences, Plymouth Meeting, Pa.), actin (Santa Cruz Biotechnology, Santa Cruz, Calif.). The membranes were visualized by enhanced chemiluminescence, as described previously (Landis-Piwowar et al., Cancer research, 2007, 67: 4303-4310; Chen et al., Cancer research, 2007, 67: 1636-1644; Chen et al., Biochemical pharmacology, 2005, 69: 1421-1432).
In FIG. 9A, human breast cancer MDA-MB-231 cells were treated with 20 μM of EGCG, Pro-EGCG and other EGCG analogs (compounds 5, 7, 23, 30 and 31), or 10 mM of metformin for 3 hrs. Cell lysates were analyzed by Western blot using antibodies of anti-AMPK, p-AMPK, PARP, p-EGFR, EGFR or β-actin. In FIG. 9B, human breast cancer MDA-MB-231 cells were treated with 20 μM of EGCG analogs 23 and 30, 10 nM of docetaxel alone, or combined treatment with compounds 23 and 30 plus docetaxel for 24 hrs.

O=C(O[C@H]1Cc2ccccc2C[C@H]1OC(=O)c1cc(O)c(O)c(O)c1)c1cc(O)c(O)c(O)c1 [Compound 5]
effect on cell proliferation when combined with Velcade [1]: antagonized the inhibitory effect
inhibition of proteasomal activity [2]: 10-16%

CC(=O)Oc1cc(OC(C)=O)cc(C(=O)O[C@H]2Cc3ccccc3C[C@H]2OC(C)=O)c1 [Compound 22]
proteasomal inhibition (in words) [3]: none

CN(C)C(=N)N=C(N)N [metformin, reference compound]
inhibition at 5000 µM (MDA-MB-231 cells; 5 mM): 41.4%
inhibition at 10000 µM (MDA-MB-231 cells; 10 mM): 67.6%

O=C(O[C@H]1Cc2ccccc2C[C@H]1OC(=O)c1cc(O)cc(O)c1)c1cc(O)cc(O)c1 [Compound 7]
effect on cell proliferation when combined with Velcade [1]: synergistic inhibitory effect
inhibition at 20 µM ([1]; Homo sapiens, ARP cells, 20 μM, read-out: inhibition of cell proliferation): ~60%
inhibition of proteasomal activity [2]: 18-51%

CC(=O)Oc1cc(C(=O)O[C@H]2Cc3ccccc3C[C@H]2OC(C)=O)cc(OC(C)=O)c1OC(C)=O [Compound 17]
proteasomal inhibition (in words) [3]: none

CC(=O)Oc1cc(OC(C)=O)c2c(c1)O[C@H](c1cc(OC(C)=O)c(OC(C)=O)c(OC(C)=O)c1)[C@H](OC(=O)c1cc(OC(C)=O)c(OC(C)=O)c(OC(C)=O)c1)C2 [Compound 4, (−)-Epigallocatechin gallate octa-acetate]
inhibition in MDA-MB-231 cells growth ([4]; 25 to 50 μM, MTT): 0 to 32%
inhibition at 50 µM ([4]; absence of DNC, read-out: inhibition of cell proliferation, compound alone): 42%
inhibition at 50 µM ([4]; plus 10 μM DNC (COMT inhibitor), read-out: inhibition of cell proliferation in the presence of DNC): 89%
AMPK activation (p-AMPK) (AMPK signaling): can activate AMPK signaling
proteasomal inhibition (in words) [3]: none

O=C(O[C@H]1Cc2ccccc2C[C@H]1O)c1cc(O)c(O)c(O)c1 [Compound 16]
inhibition of proteasomal chymotryptic activity (in words) [3]: did not inhibit

O=C(O[C@H]1Cc2ccccc2C[C@H]1O)c1cc(O)cc(O)c1 [Compound 21]
inhibition of proteasomal chymotryptic activity (in words) [3]: not active

O=C(O[C@H]1Cc2ccccc2C[C@H]1OC(=O)c1cc(F)cc(F)c1)c1cc(F)cc(F)c1 [Compound 34]
melting point: 136 to 138 °C

O=C(O[C@H]1Cc2ccccc2C[C@H]1OC(=O)c1ccc(F)c(F)c1)c1ccc(F)c(F)c1 [Compound 33]
melting point: 102 to 104 °C
